Experiments:
Format in all cases: in vivo, dog
[1] = Body composition by DEXA scan, Example 2 part one; details: for Lean mass (LM) change / Total tissue mass change: over 14 week study
Source text: Each dog was also scanned for body composition as described in Example 1 just prior to the beginning of the study and twenty-four hours following the final endurance run.

[2] = test system: canine myoglobin; assay: Serum canine myoglobin, Example 2 part one; details: for Serum myoglobin: Ex.2 part one, 250 mg/d; for Myoglobin: serum
Method: Twenty-four hours after test dogs ran the last 15 mile endurance run, serum samples were taken to evaluate biomarkers for muscle damage and antioxidant status. Blood samples were taken 1) just prior to the beginning of the study; 2) 1 day prior to running the final 15 mile run on the 14th week; 3) 1 hour immediately following the 15 mile run; and 4) 24 hours following the final 15 mile run. After a blood sample was drawn, it was allowed to clot for 30 minutes at 25° C. before being centrifuged for 15 minutes at 2000 g at 4° C. Serum was aliquoted into 0.65 mL microcentrifuge tubes and stored at −80° C. until being assayed at the end of the study for creatine kinase, canine myoglobin, thiobarbituric acid reactive substances (TBARS), and total antioxidant capacity (TAC) using the commercially available kits described in Example 1.

[3] = test system: canine myoglobin; assay: Serum canine myoglobin ELISA (muscle damage biomarker), Example 1; details: for Change in Myoglobin, post-run minus pre-run: following 15 mile long run at 13 wk, mean ± SEM
Method: Blood Analysis: Serum samples were taken at three different times from each dog during the 90 day period. The blood samples were collected as follows: 1.) just prior to scanning each dog for body composition at the beginning of the study, 2.) prior to the long run on the 13th week, and 3.) following the long run on the 13th week. The serum samples were analyzed for Phosphocreatine Kinase and Canine Myoglobin to determine the amount of muscle protein leakage that occurred following the long run and TBARS and Total Antioxidant Capacity (TAC) were determined to evaluate the antioxidant status of each of the test dogs during the exercise program. The final blood sample was taken 24 hr after the long run to obtain maximum protein leakage based on previous similar types of exercise research with human athletes. Biomarkers and Assay Methods: Blood was drawn from each dog using a serum separator tube at three different times during the 90 day period: 1.) just prior to scanning each dog for body composition at the beginning of the study, 2.) prior to the long run on the 13th week, and 3.) following the long run on the 13th week. The final blood sample was taken 24 hr after the long run to obtain maximum protein leakage based on previous similar types of exercise research with human athletes. Each time after the blood was drawn it was allowed to clot before being centrifuged for 15 min at 2000 g at 4° C. Serum was aliquoted into 1.5 mL microcentrifuge tubes and stored at −80° C. until assays were ran following the end of the study. Creatine kinase (CK) and canine myoglobin were measured to determine the amount of muscle protein leakage that occurred following the long run. Thiobarbituric acid reactive substances (TBARS) and total antioxidant capacity (TAC) were measured to evaluate the antioxidant status of each of the test dogs during the exercise program. Serum samples were analyzed for total antioxidant capacity (TAC) and thiobarbituric acid reactive substances (TBARS) using commercially available colorimetric kits supplied by Cayman Chemical Company (Ann Arbor, Mich.) per manufacturer instructions. Serum canine myoglobin levels were determined using a commercially available ELISA supplied by Innovate Research (Novi, Mich.) per manufacturer instructions. Creatine kinase activity was determined colorimetrically using a commercially available kit supplied by BioVision (San Francisco, Calif.).

[4] = Ex.2 part one, 250 mg/d, both sexes
[5] = Ex.2 part one, 250 mg/d, females

C[N+](C)(C)C[C@H](O)CC(=O)[O-] [L-carnitine]
Increase in % fat mass ([1]; Ex.2 part one, 250 mg/d, females, vs 3.01% control females (p=0.3893)): 1.58%
Lean mass (LM) change [1, 4]: 0.68 kg
Total tissue mass change [1, 4]: 0.74 kg
Lean mass (LM) change [1, 5]: 0.45 kg
Total tissue mass change [1, 5]: 0.78 kg
Lean mass (LM) change ([1]; Ex.2 part one, 250 mg/d, males): 0.91 kg
Total tissue mass change ([1]; Ex.2 part one, 250 mg/d, males): 0.70 kg
% Fat ([1]; Female, Change): 1.58 ± 1.29%
BMC ([1]; Female, Change): 9.54 ± 6.72 g
BMD ([1]; Female, Change): 0.0029 ± 0.005 g/cm2
Fat ([1]; Female, Change): 0.56 ± 0.35 kg
Lean Mass ([1]; Female, Change): 0.45 ± 0.21 kg
Total Tissue ([1]; Female, Change): 0.78 ± 0.27 kg
% Fat ([1]; Female, Final): 18.43 ± 1.75%
BMC ([1]; Female, Final): 716.5 ± 30.63 g
BMD ([1]; Female, Final): 0.58 ± 0.01 g/cm2
Fat ([1]; Female, Final): 4.62 ± 0.57 kg
Lean Mass ([1]; Female, Final): 19.95 ± 0.65 kg
Total Tissue ([1]; Female, Final): 24.34 ± 0.94 kg
% Fat ([1]; Female, Initial): 16.85 ± 2.1%
BMC ([1]; Female, Initial): 706.96 ± 30.19 g
BMD ([1]; Female, Initial): 0.58 ± 0.01 g/cm2
Fat ([1]; Female, Initial): 4.07 ± 0.59 kg
Lean Mass ([1]; Female, Initial): 19.49 ± 0.69 kg
Total Tissue ([1]; Female, Initial): 23.56 ± 0.86 kg
% Fat ([1]; Male, Change): 0.49 ± 0.61%
BMC ([1]; Male, Change): 6.54 ± 6.57 g
BMD ([1]; Male, Change): 0.011 ± 0.005 g/cm2
Fat ([1]; Male, Change): 0.22 ± 0.2 kg
Lean Mass ([1]; Male, Change): 0.91 ± 0.22 kg
Total Tissue ([1]; Male, Change): 0.7 ± 0.19 kg
% Fat ([1]; Male, Final): 14.81 ± 1.05%
BMC ([1]; Male, Final): 927.39 ± 25.32 g
BMD ([1]; Male, Final): 0.65 ± 0.01 g/cm2
Fat ([1]; Male, Final): 4.56 ± 0.36 kg
Lean Mass ([1]; Male, Final): 26.54 ± 0.71 kg
Total Tissue ([1]; Male, Final): 30.67 ± 0.72 kg
% Fat ([1]; Male, Initial): 14.31 ± 1.16%
BMC ([1]; Male, Initial): 920.86 ± 25.96 g
BMD ([1]; Male, Initial): 0.64 ± 0.01 g/cm2
Fat ([1]; Male, Initial): 4.34 ± 0.42 kg
Lean Mass ([1]; Male, Initial): 25.63 ± 0.58 kg
Total Tissue ([1]; Male, Initial): 29.97 ± 0.75 kg
% Fat ([1]; all dogs, Change): 1.04 ± 0.71%
BMC ([1]; all dogs, Change): 8.04 ± 4.62 g
BMD ([1]; all dogs, Change): 0.007 ± 0.003 g/cm2
Fat ([1]; all dogs, Change): 0.39 ± 0.2 kg
Lean Mass ([1]; all dogs, Change): 0.68 ± 0.16 kg
Total Tissue ([1]; all dogs, Change): 0.74 ± 0.16 kg
% Fat ([1]; all dogs, Final): 16.62 ± 1.06%
BMC ([1]; all dogs, Final): 821.95 ± 28.14 g
BMD ([1]; all dogs, Final): 0.61 ± 0.01 g/cm2
Fat ([1]; all dogs, Final): 4.59 ± 0.33 kg
Lean Mass ([1]; all dogs, Final): 23.24 ± 0.79 kg
Total Tissue ([1]; all dogs, Final): 27.5 ± 0.84 kg
% Fat ([1]; all dogs, Initial): 15.58 ± 1.2%
BMC ([1]; all dogs, Initial): 813.91 ± 28.38 g
BMD ([1]; all dogs, Initial): 0.608 ± 0.01 g/cm2
Fat ([1]; all dogs, Initial): 4.2 ± 0.35 kg
Lean Mass ([1]; all dogs, Initial): 22.56 ± 0.74 kg
Total Tissue ([1]; all dogs, Initial): 26.76 ± 0.83 kg
Serum myoglobin ([2]; post-run 1 hour): 23.83 ng/mL
Serum myoglobin ([2]; post-run 24 hour): 9.25 ng/mL
Myoglobin ([2]; FEMALES, Baseline): 17.33 ± 4.7 ng/mL
Myoglobin ([2]; FEMALES, Post-Run 1 Hr): 25.19 ± 4.25 ng/mL
Myoglobin ([2]; FEMALES, Post-Run 24 Hr): 8.08 ± 2.83 ng/mL
Myoglobin ([2]; FEMALES, Pre-Run): 4.88 ± 1.24 ng/mL
Myoglobin ([2]; MALES, Baseline): 22.22 ± 6.92 ng/mL
Myoglobin ([2]; MALES, Post-Run 1 Hr): 22.46 ± 4.41 ng/mL
Myoglobin ([2]; MALES, Post-Run 24 Hr): 4.41 ± 0.64 ng/mL
Myoglobin ([2]; MALES, Pre-Run): 8.69 ± 3.25 ng/mL
Myoglobin ([2]; Whole Groups, Baseline): 19.78 ± 4.13 ng/mL
Myoglobin ([2]; Whole Groups, Post-Run 1 Hr, Post-Run 1 Hr): 23.83 ± 3.02 ng/mL
Myoglobin ([2]; Whole Groups, Post-Run 24 Hr, Post-Run 24 Hr): 6.25 ± 1.47 ng/mL
Myoglobin ([2]; Whole Groups, Pre-Run): 6.78 ± 1.74 ng/mL
Myoglobin Least Sq Mean ([3]; Baseline): 10.1 ng/mL
Myoglobin Least Sq Mean ([3]; Baseline, F): 14.77 ng/mL
Myoglobin Least Sq Mean ([3]; Baseline, M): 5.43 ng/mL
Myoglobin, serum, Mean ([3]; Ex.1, 250 mg/d, Baseline, both sexes): 10.0 ng/mL
Myoglobin, serum, Mean ([3]; Ex.1, 250 mg/d, Baseline, females): 17.6 ng/mL
Myoglobin, serum, Mean ([3]; Ex.1, 250 mg/d, Baseline, males): 5.8 ng/mL
Myoglobin, serum, Mean ([3]; Ex.1, 250 mg/d, Post-run, both sexes): 19.2 ng/mL
Myoglobin, serum, Mean ([3]; Ex.1, 250 mg/d, Post-run, females): 24.5 ng/mL
Myoglobin, serum, Mean ([3]; Ex.1, 250 mg/d, Post-run, males): 14.9 ng/mL
Myoglobin, serum, Mean ([3]; Ex.1, 250 mg/d, Pre-run, both sexes): 9.0 ng/mL
Myoglobin, serum, Mean ([3]; Ex.1, 250 mg/d, Pre-run, females): 8.4 ng/mL
Myoglobin, serum, Mean ([3]; Ex.1, 250 mg/d, Pre-run, males): 9.3 ng/mL
Change in Myoglobin, post-run minus pre-run ([3]; Ex.1, 250 mg/d, females): 6.11 ± 3.51 n = 6 ng/mL
Change in Myoglobin, post-run minus pre-run ([3]; Ex.1, 250 mg/d, males): 7.04 ± 3.9 n = 10 ng/mL
Serum myoglobin values after exercise ([3]; Ex.1, 250 mg/d, post-run, summary text value, control 30.97): 19.67 ng/mL
Myoglobin Least Sq Mean ([3]; Post-run): 19.67 ng/mL
Myoglobin Least Sq Mean ([3]; Post-run, F): 24.46 ng/mL
Myoglobin Least Sq Mean ([3]; Post-run, M): 14.88 ng/mL
Myoglobin Least Sq Mean ([3]; Pre-run): 10.01 ng/mL
Myoglobin Least Sq Mean ([3]; Pre-run, F): 11.06 ng/mL
Myoglobin Least Sq Mean ([3]; Pre-run, M): 8.96 ng/mL
Myoglobin Least Sq Mean ([3]; Treatment * Sex, F): 14.77 ng/mL
Myoglobin Least Sq Mean ([3]; Treatment * Sex, M): 5.43 ng/mL
Myoglobin Least Sq Mean ([3]; Treatment level, all dogs): 10.1 ng/mL
Myoglobin, mixed model Estimate, term Time[Post-run-Pre-run] * Treatment[L-carnitine] ([3]; serum, model term): −7.625
Myoglobin, mixed model Estimate, term Time[Post-run-Pre-run] * Treatment[L-carnitine] * Sex[F] ([3]; serum, model term): −3.63
Myoglobin, mixed model Estimate, term Time[Pre-run-Baseline] * Treatment[L-carnitine] ([3]; serum, model term): 0.3222
Myoglobin, mixed model Estimate, term Time[Pre-run-Baseline] * Treatment[L-carnitine] * Sex[F] ([3]; serum, model term): −0.369
Myoglobin, mixed model Estimate, term Treatment[L-carnitine] ([3]; serum, model term): 1.653
Myoglobin, mixed model Estimate, term Treatment[L-carnitine] * Sex[F] ([3]; serum, model term): 1.582
